{"source": "patent US20030065039A1", "about": "“Biologically active 1,3-bis-aromatic-prop-2-en-1-ones, 1,3-bis-aromatic-propan-1-ones, and 1,3-bis-aromatic-prop-2-yn-1-ones” (Statens Serum Institute, priority 1997, published 2003)", "type_in_all_cases": "cell-based", "key": {"Leishmania promastigotes": {"tested_on": "Leishmania promastigotes", "experiment": "Leishmania promastigotes Assay", "settings": "Leishmania; promastigotes, 3H-thymidine uptake; read-out: Leishmania IC50 ± SD", "procedure,_shortened": "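L. major (WHO Iran vaccine strain) and L. donovani MHOM/KE/85/NLB 274 promastigotes (3×10^6/ml, day 3 and 6 cultures) exposed to compound 2 h at 26 °C, then 3H-thymidine 18 h; incorporation counted by scintillation. Microscopic counts and flagellar motility also assessed.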"}, "TNF-α": {"tested_on": "TNF-α", "experiment": "TNF-α production by human peripheral blood mononuclear cells, culture supernatant (ELISA)", "description": "Cells: Peripheral blood mononuclear cells obtained from healthy individuals. The cells were separated by a conventional method lymphoprep) and suspended in RMPI 1640 containing 5% human serum.\nStimulation of cytokine-release from human mononuclear cells: Human peripheral blood mononuclear cells from Danish donors were suspended in 1-10% (v/v) human serum in RPMI 1640 and adjusted to 2×10^6 cells per ml. 0.1 ml volumes were then dispensed into wells of 96-well microtiter plates. […] In some experiments cells were preincubated with drugs for 2 hrs before addition of stimulation antigens. The cultures were incubated overnight for TNF-α and IL-6 assays.\nSupernatants were collected and assayed for TNF-α, IL-1α and IL-6 by ELISA procedures (Jakobsen et al., 1993, Fomsgaard et al., 1988, Hansen et al., 1991) with the following modifications. ELISA Maxisorp plates (Nunc, Roskilde, Denmark) were coated for 24 hrs at 4 C with 100 μl per well of 2.5 μg/ml rabbit polyclonal IgG to human recombinant TNF, IL-1α or IL-6 in 100 mM sodiumhydrogencarbonate. Non-attached sites were blocked for 1 h by 200 μl per well of 2% human serum slbumin in PBS (1 h at 37° C.), and the wells were washed 4 times in 2.5% NaCl, 0.1% Tween 20 (Merck, Darmstadt, Germany). This washing procedure was done after each of the following incubating steps:\n1) 100 μl culture supernatants made to 50% (v/v) in incubation buffer (4% (v/v) normal rabbit serum, DAKO code X902), 1% polyethylene glycol (MW 6,000), 2.5% NaCl, 0.1% Tween 20 in phosphate buffered saline (PBS) were incubated 2 hrs at 37° C., dilutions of native as well as recombinant cytokine standards in the same incubation buffer were asssayed in parallel with the tested supernatants,\n2) 100 μl per well of biotinilated rabbit antibodies to recombinant TNF-α, IL-1α or IL-6 (1.5 μg/ml in 0.5% human serum albumin, 0.1% Tween 20 in PBS) were added at 37° for 2 hrs,\n3) […] per well of a 1:1000 dilution of streptavidin-peroxidase (Amersham, UK), at room temperature for 30 min.\nEnzyme activities were quantitated after addition of 100 μl per well of 0.67 mg/ml 1,2-phenyldiamine hydrochloride (DAKO) dissolved in 100 mM citric acid-phosphate buffer, pH 5.0 containing 0.015% (v/v) H2O2. The reactions were stopped by adding 50 μl per well of 2.5 M H2SO4, and the optical densities are measured in an ELISA scanner at 490 nm against a test reference at 620 nm.\nAssay: The compounds were prepared as stock solution at a concentration of 1 mg/ml in medium containing 10% DMSO. The dilutions were made in medium. The cells were stimulated with either SPAG (a malaria antigen TNF-inducer) or bacterial LPS. The supernatant of cell cultures were assayed for TNF-α using a commercial ELISA kit."}, "human lymphocytes": {"tested_on": "human lymphocytes", "experiment": "Lymphocyte Proliferation Assay", "settings": "Lymphocyte; PHA provoked proliferation of human lymphocytes; read-out: Lymphocytes IC50 ± SD", "procedure,_shortened": "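Ficoll-isolated human blood mononuclear cells (0.63×10^5/ml) in RPMI 1640 with 5% FCS were cultured in triplicate with test compound and PHA or PPD for 3 or 7 days. Proliferation measured by ^3H-thymidine incorporation over the final 24 h; triplicate median recorded.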"}}}
{"smiles": "COc1cc(/C=C/C(=O)c2cccc(F)c2)cc(OC)c1", "note": "[PH136, 3′-fluoro-3,5-dimethoxychalcone]", "values": [{"measurement": "IC50", "setting": "Leishmania promastigotes", "result": "5.5 ± 0.3", "unit": "µM"}, {"measurement": "TNF-α production (OD values)", "setting": "TNF-α; Experiment 1, LPS, 12.5 μg/ml, Control 1.17", "result": 0.00, "unit": "OD"}, {"measurement": "TNF-α production (OD values)", "setting": "TNF-α; Experiment 1, LPS, 25 μg/ml, Control 1.17", "result": 0.00, "unit": "OD"}, {"measurement": "TNF-α production (OD values)", "setting": "TNF-α; Experiment 1, LPS, 50 μg/ml, Control 1.17", "result": 0.00, "unit": "OD"}, {"measurement": "TNF-α production (OD values)", "setting": "TNF-α; Experiment 1, LPS, 100 μg/ml, Control 1.17", "result": 0.01, "unit": "OD"}, {"measurement": "TNF-α production (OD values)", "setting": "TNF-α; Experiment 1, SPAG, 12.5 μg/ml, Control 3.73", "result": 0.01, "unit": "OD"}, {"measurement": "TNF-α production (OD values)", "setting": "TNF-α; Experiment 1, SPAG, 25 μg/ml, Control 3.73", "result": 0.00, "unit": "OD"}, {"measurement": "TNF-α production (OD values)", "setting": "TNF-α; Experiment 1, SPAG, 50 μg/ml, Control 3.73", "result": 0.01, "unit": "OD"}, {"measurement": "TNF-α production (OD values)", "setting": "TNF-α; Experiment 1, SPAG, 100 μg/ml, Control 3.73", "result": 0.00, "unit": "OD"}, {"measurement": "TNF-α production (OD values)", "setting": "TNF-α; Experiment 2, LPS, 1.562 μg/ml, Control 2.06", "result": 1.70, "unit": "OD"}, {"measurement": "TNF-α production (OD values)", "setting": "TNF-α; Experiment 2, LPS, 3.125 μg/ml, Control 2.06", "result": 1.81, "unit": "OD"}, {"measurement": "TNF-α production (OD values)", "setting": "TNF-α; Experiment 2, LPS, 6.25 μg/ml, Control 2.06", "result": 2.18, "unit": "OD"}, {"measurement": "TNF-α production (OD values)", "setting": "TNF-α; Experiment 2, LPS, 12.5 μg/ml, Control 2.06", "result": 0.08, "unit": "OD"}, {"measurement": "TNF-α production (OD values)", "setting": "TNF-α; Experiment 2, SPAG, 1.562 μg/ml, Control 2.28", "result": 3.29, "unit": "OD"}, {"measurement": "TNF-α production (OD values)", "setting": "TNF-α; Experiment 2, SPAG, 3.125 μg/ml, Control 2.28", "result": 4.00, "unit": "OD"}, {"measurement": "TNF-α production (OD values)", "setting": "TNF-α; Experiment 2, SPAG, 6.25 μg/ml, Control 2.28", "result": 1.39, "unit": "OD"}, {"measurement": "TNF-α production (OD values)", "setting": "TNF-α; Experiment 2, SPAG, 12.5 μg/ml, Control 2.28", "result": 0.02, "unit": "OD"}, {"measurement": "IC50", "setting": "human lymphocytes", "result": "9.2 ± 0.5", "unit": "µM"}]}
